Experiment: in vitro
Details: human, hela cells, % viability

Row | SMILES | viability at 28.5 h, 10 µM
1 | Cc1nn(Cc2ccccc2)c(C)c1C(=O)N(C)C [CBK015942] | 104%
2 | CCOC(=O)c1cccc(-c2ccc(OC(F)(F)F)cc2)n1 [CBK149251] | 96.6%
3 | O=C(CCNc1n[nH]c(=O)[nH]c1=O)N/N=C/c1ccc(C(F)(F)F)cc1 [CBK263518] | 87.7%
4 | CCOc1ccccc1Nc1c([N+](=O)[O-])nn(-c2ccc(OC)cc2)[n+]1[O-] [CBK268411] | 90.2%
5 | COc1ccc(OC)c(NC(=O)CSc2nnc(-c3ccncc3)n2C)c1 [CBK266623] | 103%
6 | Cc1cccc(CC(=O)N2CCCC2c2n[nH]cc2-c2ccncc2)c1 (stereo not drawn) [CBK283447] | 90.7%
7 | O=C(c1ccc2[nH]nnc2c1)N1CCc2ccccc2C1 [CBK200332] | 103%
8 | Cc1ccc(CNC(=O)Cn2nnc(-c3ccc(CN4CCC(S(C)(=O)=O)C4)cc3)n2)cc1 (stereo not drawn) [CBK155407T] | 91.7%
9 | COc1ccc(C(=O)Nc2cccc(-c3nc4ccccc4[nH]3)c2)c(OC)c1 [CBK072662] | 95.4%
10 | Cc1ccnn1C(C)C(=O)NC(Cc1ccsc1)c1nccs1 (stereo not drawn) [CBK285141] | 92.1%
11 | CC(C)N(C(=O)c1ccccc1-c1cnc2cccnn12)C(C)C [CBK306900] | 97.8%
12 | COc1nn(CC(=O)Nc2cccc(CCc3ccncc3)c2)c(=O)c2ccccc12 [CBK285560] | 94.5%
13 | CCC1=NN(c2ccccc2)C(=O)C(CC(=O)Nc2ccccc2)c2cc(OC)c(OC)cc21 (stereo not drawn) [CBK260938] | 89%
14 | Cc1ccc(C2N(Cc3ccccc3)CCN2Cc2ccccc2)o1 [CBK260883] | 98.3%
15 | O=C(CC1NC(=O)NC1=O)Nc1ccccc1 (stereo not drawn) [CBK267331] | 90.4%
16 | C1CN=C(SCCCCSC2=NCCCN2)NC1 [CBK278223B] | 107%
17 | Cc1nn(Cc2ccc(C(=O)Nc3c(C)nn(Cc4ccc(Cl)c(Cl)c4)c3C)o2)c(C)c1Br [CBK265855] | 83.5%
18 | O=Cc1c(-[n+]2ccc(-c3ccncc3)cc2)nc([O-])n1-c1ccccc1 [CBK261529] | 108%
19 | Cc1ccc(C(=O)N(Cc2nc(-c3ccc(Cl)cc3)no2)C(C)C)cc1[N+](=O)[O-] [CBK268422] | 98.7%
20 | CCN1CC2(CCC1=O)CCN(Cc1nncn1C(C)C)CC2 [CBK307460] | 107%
21 | Brc1ccc2c(c1)[C@H]1C=CC[C@H]1[C@@H](c1ccccc1)N2 [CBK303238] | 89%
22 | Cc1c(Cl)cccc1N1CCN(S(=O)(=O)CC23CCC(CC2=O)C3(C)C)CC1 (stereo not drawn) [CBK269257] | 96.1%

Row | SMILES | viability at 28.5 h, 10 µM
23 | OCc1ccccc1-c1cc(N2CCN(Cc3cccnc3)CC2)n2nccc2n1 [CBK037105] | 98.9%
24 | O=C(CSc1ccc(Cl)cc1)Nc1cc(C(=O)O)cc(C(=O)O)c1 [CBK266531] | 98.8%
25 | Cc1cccc(-c2nc3ccc(NC(=O)CCC(=O)O)cc3o2)c1 [CBK269773] | 95.1%
26 | CCCCC1(COC(C)=O)OC(=O)Nc2ccc(Br)cc21 (stereo not drawn) [CBK010195] | 91.1%
27 | COc1ccccc1C(NC(=O)C1CCN(CCCN2C(=O)CC3CCCCC3C2=O)CC1)c1ccccn1 (stereo not drawn) [CBK147940] | 95%
28 | O=C1N=C(Nc2cccc(C(=O)O)c2)S/C1=C/c1cccc(O)c1 [CBK264984] | 92.5%
29 | CCOc1ccc(-c2cncc(N3CCN(C(=O)c4ccco4)CC3)n2)cc1 [CBK065860] | 109%
30 | CCOCCn1cnc2sc(C(=O)NCc3ccccn3)c(C)c2c1=O [CBK071857] | 93.4%
31 | Cc1c(N2C(=O)/C(=C3\C(=O)Nc4ccc([N+](=O)[O-])cc43)SC2=S)c(=O)n(-c2ccccc2)n1C [CBK263071] | 115%
32 | CC(C)CN1CC2(CCN(C(=O)OCc3ccccc3)CC2)c2ccccc21 [CBK022626C] | 106%
33 | O=C(Nc1nnc(-c2ccco2)o1)c1ccc2c(c1)CCCC2 [CBK287425] | 79.1%
34 | CN1C(=O)CC2(C1=O)C(=O)N(CC(=O)O)c1ccc(Cl)cc12 (stereo not drawn) [CBK076107] | 98.8%
35 | CCNC(=O)Nc1ncc(-c2ccc3c(c2)OCCCO3)c2cccnc12 [CBK070634] | 104%
36 | Cc1ccc(-n2c(=O)[nH]cc(C(=O)Nc3cccc(Cl)c3C)c2=O)cc1C [CBK287551] | 101%
37 | NS(=O)(=O)c1ccc(NC(=S)NC(=O)/C=C/c2ccc([N+](=O)[O-])cc2)cc1 [CBK262176] | 99.2%
38 | COc1ccccc1CNC(=O)c1ccc(=O)[nH]c1 [CBK288133] | 106%
39 | COc1cccc(-n2nnc3c(SCC(N)=O)ncnc32)c1 [CBK287543] | 75%
40 | CS(=O)(=O)N(CC(=O)Nc1ccc(S(=O)(=O)N2CCCCCC2)cc1)c1ccccc1F [CBK266829] | 92.9%
41 | COCCn1ccnc1C1CCN(C(=O)COc2cccc(F)c2)CC1 [CBK307362] | 91.3%
42 | COCCN(Cc1cc2cccc(C)c2nc1O)S(C)(=O)=O [CBK269395] | 99.9%
43 | Cc1ccc(OCC(=O)Nc2cc(Cl)ccc2O)cc1C [CBK265968] | 108%
44 | O=c1[nH]c(=O)c2cc(S(=O)(=O)N3CCCCC3CN3CCCCC3)ccc2[nH]1 (stereo not drawn) [CBK286393] | 83.5%

Row | SMILES | viability at 28.5 h, 10 µM
45 | O=C(O)C1CC(=O)N(CCc2ccccc2)/C(=N/CCc2ccccc2)S1 (stereo not drawn) [CBK265558] | 89.2%
46 | O=C(O)C1(Oc2ccc3ncccc3c2)CCN(CC2CCOC2)CC1 (stereo not drawn) [CBK307336] | 93.2%
47 | O=C(c1cc(C2CCCN(Cc3ccccc3)C2)no1)N1CCCC1 (stereo not drawn) [CBK283395] | 89.7%
48 | CSc1nccc(N2CCC(NCCn3c(C)cc(C)nc3=O)CC2)n1 [CBK307070] | 85.3%
49 | Cc1ccc2c(C(=O)Nc3sc4c(c3C(N)=O)CCCCC4)cc(-c3ccccn3)nc2c1C [CBK267749] | 94%
50 | O=C(Nc1nc2ccccc2[nH]1)NC1CCCCC1 [CBK288210] | 86.1%
51 | Cn1ccc(C(=O)NC2CCN(c3ncccn3)CC2)cc1=O [CBK304280] | 85.2%
52 | CCn1c(SCC(=O)NC2CC2)nc2ccccc21 [CBK305864] | 117%
53 | Cc1ccc2c(c1)C1(CCN(CC3CC3)CC1)NC(=O)C2 [CBK040217] | 94.8%
54 | CCN(Cc1ccccc1)[C@@H](CO)Cc1ccc(OC)cc1 [CBK073856T] | 89.6%
55 | CN(C)Cc1c(O)ccc2occ(C(=O)c3ccccc3)c12 [CBK261965] | 94%
56 | CC(C)(C#N)c1ccccc1CN1CCCCC1c1[nH]ncc1C(N)=O (stereo not drawn) [CBK304740] | 108%
57 | Cc1cccc(C)c1NC(=O)C(C#N)C(=O)c1nn(-c2ccccc2)c2c1CSc1ccccc1-2 (stereo not drawn) [CBK017678] | 81.8%
58 | COc1ccc2[nH]cc(C(=O)NCCn3nc(C)c(C)c3C)c2c1 [CBK281389] | 88.2%
59 | COc1ccc(CCNC(=O)CCn2cncn2)cc1 [CBK305881] | 105%
60 | CCCNC(=O)CN(C)Cc1cn2cccc(C)c2n1 [CBK304800] | 85.2%
61 | CN(CC(=O)NCc1ccco1)C1CCCCC1 [CBK304471] | 85.6%
62 | CC(SCc1ccccc1)C(=O)NCc1ccnc(OCC(F)(F)F)c1 (stereo not drawn) [CBK298325] | 111%
63 | COc1ccc(C(=O)N2C[C@@H](C)O[C@@H](C)C2)c(OC)n1 [CBK200231] | 92.2%
64 | Cc1ccccc1NC(=O)c1c(NC(=O)Cc2ccccc2)sc2c1CCCC2 [CBK262572] | 108%
65 | O=C(Nc1ccc([C@@H](O)[C@H]2COCC(=O)N2Cc2ccccn2)cc1)c1cccs1 [CBK289700] | 109%
66 | CC(=O)NC1(c2ccc(F)cc2)CCN(C(=O)C2CCC2)CC1 [CBK283492] | 109%

Row | SMILES | viability at 28.5 h, 10 µM
67 | CC(C)(N)C(=O)N1CC(C(=O)N2CC3(CCN(S(C)(=O)=O)CC3)c3ccccc32)C(c2cc3ccccc3o2)C1 (stereo not drawn) [CBK136734T] | 117%
68 | O=C(Cc1ccsc1)NCCn1nc(-c2cccs2)ccc1=O [CBK283842] | 96.5%
69 | CC1(C)Cc2c(sc(NC(=O)C3CC(Cl)=CCC3C(=O)O)c2C#N)CO1 (stereo not drawn) [CBK265002] | 97.6%
70 | Cc1cc(C)n(CC(=O)N2CCCC2c2cc3cccnc3[nH]2)n1 (stereo not drawn) [CBK285074] | 97.1%
71 | COc1ccc(-c2oc(C(=O)N(C)C)c(C(=O)O)c2-c2ccc(OC)cc2)cc1 [CBK001958] | 90.5%
72 | Cc1ccc(-n2c(SCC(N)=O)nnc2-c2ccccc2O)c(C)c1 [CBK269673] | 89.6%
73 | COc1ccc(Cc2cccc(C3CCN(C(=O)Cc4ccc(F)cc4)CC3)n2)cc1 [CBK286225] | 95.6%
74 | CC1Cc2cc(C(O)CN3CCC(O)(c4ccccc4F)CC3)ccc2N1S(C)(=O)=O (stereo not drawn) [CBK283091] | 87.5%
75 | Cc1cc(C)nc(N/C(=N/C(=O)Cc2ccccc2)N2CCC(C(N)=O)CC2)n1 [CBK263889] | 107%
76 | O=C(NCCc1c[nH]c2ccccc12)c1cccs1 [CBK231038] | 88.2%
77 | CCOc1cc(NC2CCN(C(=O)OC(C)(C)C)CC2)ncn1 [CBK306288] | 89.6%
78 | Cc1nc2c(c(=O)[nH]1)CC[C@@H]1CN(C(=O)C3CCCCC3)C[C@H]21 [CBK284407] | 102%
79 | O=C(CSC1=NC(=O)C(Cc2ccccc2)C(=O)N1)Nc1ncccn1 (stereo not drawn) [CBK263906] | 120%
80 | CC1CC1C(=O)N1CCCC(c2nn(C)c3ncccc23)C1 (stereo not drawn) [CBK282167] | 85.7%
81 | CNC(=O)NC(=O)C1CCN(CCc2ccccc2)CC1 [CBK034956] | 106%
82 | COc1ccc2c(C)nc(NC3=NC(c4ccccc4)CC(=O)N3)nc2c1 (stereo not drawn) [CBK270230] | 85.4%
83 | Cc1cc(CNC(=O)c2ccc3c(c2)OCO3)c2ccccc2n1 [CBK270014] | 72.1%
84 | Cn1ncc2c(=O)n(Cc3nc(C(C)(C)C)no3)cnc21 [CBK304906] | 87.9%
85 | Cc1cccc(N(CC(=O)O)CC(=O)O)c1 [CBK261103] | 93.2%
86 | CCN1CCN(C(=O)CN(C)S(=O)(=O)c2ccc(OC)c(Cl)c2)CC1 [CBK268091] | 93.2%
87 | O=C(Nc1ccc(Cl)c(S(=O)(=O)N2CCCC2)c1)c1cnccn1 [CBK295176] | 87.9%
